Experimental data from patent US10517839B2, “Mast cell inhibition in diseases of the retina and vitreous” (Cornell University, priority 2008, dated 2019).
“Also recorded” adds a separate entry of the source.

Experiments:
[1] = tested on: renin; experiment: Renin activity (ANG I formed, RIA) of HMC-1 cells before and 48 hours after siRNA transfection; type: cell-based, human; details: siRNA 50 nM, 48 hours after transfection
Experimental: Renin-specific siRNA duplexes were made based on the coding sequence of human renin between exons 2-8 (Dharmacon) (accession number M26900). The four siRNA duplexes were made against the following renin sequences:
To assess the efficacy of this siRNA approach, the activity of renin protein was measured both before siRNA transfecting and at 48 hours after transfection of the HMC-1 cells.
HMC-1 cells were seeded in 6-well plates. Cells were transfected either with: renin siRNA duplexes (50 nM), scrambled siRNA duplex (50 nM), or treated with the transfection reagent (control), and maintained for 48 hours. An aliquot of cells from each well was counted to estimate the cell number before (initial) and 48 hours after transfection (post). The ability of the siRNA duplexes to silence renin mRNA in the transfected HMC-1 cells was determined by comparing the amount of ANG I formed in the releasate pre- and post-transfection by radioimmunoassay (RIA). […] The amount of ANG I generated on each sample is expressed as pg ANG I formed/ml/hr/10^5 cells. The effect of the siRNA on the amount of renin protein produced by the cell was determined by comparing the initial and final amounts of ANG I formed (renin activity) by the releasates.

[2] = tested on: HMC-1 cells; experiment: Chemotaxis of HMC-1 cells in Corning transwells; type: cell-based, human; details: transwell, p<0.05
Experimental: Chemotaxis experiments were performed with cultured human mastocytoma cells. HMC-1 cells were plated in Corning transwells consisting of inner and outer wells. The number of mast cells migrating through the insert in response to exogenous histamine±thioperamide, an H3/H4 histamine receptor […], was counted.

[3] = tested on: isolated perfused diabetic kidneys; experiment: Flow rate of isolated perfused diabetic kidneys after mast-cell degranulation with 48/80; details: diabetic rat kidney; for vasoconstriction response to 48/80 compared to untreated diabetic kidney (in words): BILA 2157 in perfusate
Experimental: Mast-cell degranulation was induced with agent 48/80, which will release renin, as the inventors have previously shown, as well as numerous other mediators synthesized and stored by mast cells.
Flow rate (ml/min) was measured under constant perfusion pressure, and is plotted against time (min).
After establishing a constant flow rate, mast-cell degranulation was induced by injecting the 48/80 degranulating agent (300 μg/ml) into the renal artery (at arrow). […] However, the magnitude of this vasoconstriction response was markedly different between the two kidneys. […] Moreover, the return to baseline flow rate was much faster in the BILA2157-treated diabetic kidney (˜8 min) compared to the untreated diabetic kidney (˜40 min). The rate of the initial flow recovery was also greater in the BILA-treated diabetic kidney (0.5 mls/min/min) compared to the untreated diabetic kidney (0.3 mls/min/min). […] In situ, the time it takes to return to normal flow after an acute increase in vascular resistance can profoundly influence the extent of ischemic damage in the kidney.

[4] = tested on: STZ-induced diabetic rat; experiment: Retinal whole mounts stained with FITC-griffonia lectin (tortuosity of retinal microvasculature); type: in vivo; details: cromolyn-treated diabetic rat, retinal whole mount
Experimental: To induce a model of type-I diabetes, Sprague Dawley and Long-Evans rats were injected with a single dose of streptozotocin (STZ) (60 mg/kg) and maintained for 2 months. Hyperglycemia was confirmed by monitoring blood from tail bleeds. To assess vascular leakage in these diabetic rats, fluorescein retinal angiography was performed weekly over a 2-month time course in the Long-Evans rats. In some experiments, rats were treated with the mast cell stabilizer, Na-cromolyn, topically administered to the eyes. […] This Example describes an analysis of the retinal vasculature from fixed eyes of control (A), diabetic (B), and cromolyn-treated diabetic (C) rats.

[5] = tested on: STZ-induced diabetic rat model (Long Evans strain); experiment: Fluorescein angiography of retinal vascular permeability; type: in vivo; details: for leakage/pooling of fluorescein dye out of retinal vessels: 2 drops b.i.d.; for retinal vascular leakiness (fluorescein) over time: STZ Long-Evans rats, 14 and 28 days, n=3, FIG. 14
Experimental: To assess vascular leakage in these diabetic rats, fluorescein retinal angiography was performed weekly over a 2-month time course in the Long-Evans rats. In some experiments, rats were treated with the mast cell stabilizer, Na-cromolyn, topically administered to the eyes. The structure of Na-Cromolyn is shown below.
Angiography was performed on an upright fluorescence microscope using a long working distance lens. At the 2-month end point, rats were sacrificed and the eyes were enucleated, dissected free of cornea and extra-orbital connective tissue, and fixed in 4% paraformaldehyde.
The STZ-induced diabetic rat model (Long Evans strain) (40 mg/kg body wt; 28 days) was used for these studies. Fluorescein angiography was performed to assess the permeability of the retinal vasculature in these rats. The pigmented eyes of this strain facilitate angiography. Diabetic rats were treated with the mast cell stabilizer Na-cromolyn and the vascular permeability of these treated rats was compared to diabetic rats that were not treated with Na-cromolyn.
Weekly angiograms were also performed on control rats, STZ-injected, and STZ-injected rats treated with the mast cell stabilizer, Na cromolyn […], topically administered to the eyes (2 drops b.i.d.).
The STZ-induced diabetic rat model (Long Evans strain) (40 mg/kg body wt; 28 days) was used for fluorescein angiography experiments. The pigmented eyes of this strain facilitate angiography. To evaluate the role of mast cells, weekly angiograms were performed on control rats, STZ-injected, and STZ-injected rats treated with the mast cell stabilizer, Na cromolyn (4%), topically administered to the eyes (2 drops b.i.d.).

[6] = tested on: STZ-induced hyperglycemic Long-Evans rats; experiment: Evan's Blue dye leakage across the blood-retinal barrier; type: in vivo, rat; details: Na cromolyn 4% topical, 2 drops twice a day, day 15 post STZ, n=4 rats
Text: In order to verify this finding, additional experiments were designed to measure leakiness across the blood-retinal barrier of STZ-induced hyperglycemic Long-Evans rats and to determine whether mast cell stabilization reduces vascular permeability in the hyperglycemic state. Blood glucose levels were monitored weekly to verify the hyperglycemic state. The three groups of animals were as follows: untreated hyperglycemic, cromolyn-treated hyperglycemic, and normo-glycemic (vehicle injected). The hyperglycemic group of rats was treated with the mast cell stabilizer (Na cromolyn, 4%) by topical administration to the eyes (2 drops twice a day), as described above.
Measurements of the Evan's Blue dye concentration across the blood-retinal barrier were performed on day 15 post±STZ-injection. […] 100 μl of the filtrate was then measured in a spectrophotometer at 620 nm, the dye's absorbance maximum. The dye's absorbance minimum, 740 nm, served as a reference wavelength. Dilutions (1:1000 in formamide) of the collected plasma were also measured spectrophotometrically at this time. Sample absorbance measurements were converted to concentrations using absorbance measurements from known concentrations of Evan's Blue in formamide. Dye leakage from blood to retina was calculated as: […]

[7] = tested on: VEGF; experiment: VEGF levels in retinas of STZ-injected diabetic rats; type: in vivo, rat; details: for effect on VEGF levels in retina (in words): STZ-induced diabetic rats, Na-Cromolyn 4% topical
Experimental: The STZ-induced diabetic rat model (Long Evans strain) (40 mg/kg body wt; 28 days) was used for these studies. To evaluate the effect of a mast cell stabilizer on VEGF levels, STZ-injected rats were treated with the mast cell stabilizer, Na-Cromolyn (4%), topically administered to the eyes (2 drops b.i.d.). VEGF levels were measured in the retinas of STZ-injected diabetic rats treated with Na-Cromolyn and these levels were compared to VEGF levels in the retinas of control rats and in the retinas of STZ-injected diabetic rats that received no Na-Cromolyn. Control rats received no streptozotocin (STZ) and no Na-Cromolyn.

scrambled control siRNA: negative control, non-specific scrambled siRNA duplex, SEQ ID NO: 9 and 10 (chain 1 AUGUAUUGGCCUGUAUUAGUU; chain 2 CUAAUACAGGCCAAUACAUUU; listed as RNA, chemistry not given here)
change in renin activity / amount of ANG I formed after transfection (in words) [1]: no significant decrease

NCCc1c[nH]cn1 [histamine]
number of mast cells migrating through the insert in response to exogenous histamine ([2]; vs control): significantly more migration

CC(C)C[C@H](O)[C@H](O)[C@H](CC1CCCCC1)NC(=O)[C@@H](CC(=O)N(CC(=O)N(C)CCc1ccccn1)CC1CCCCC1)Cc1csc(N)n1 [BILA2157]
rate of the initial flow recovery ([3]; 100 nM BILA 2157, after 48/80): 0.5 mls/min/min | return to baseline flow rate ([3]; 100 nM BILA 2157, after 48/80): ~8 min | flow rate after 48/80 injection (from baseline 20 ml/min) ([3]; 100 nM BILA 2157 in perfusate, constant perfusion pressure, 48/80 300 μg/ml into renal artery): 12 mL/min | effect on flow rate in the absence of a degranulating agent ([3]; 100 nM in perfusate): no effect on flow rate | vasoconstriction response to 48/80 compared to untreated diabetic kidney (in words) [3]: much less vasoconstriction | vasoconstriction response to 48/80 compared to untreated diabetic kidney (in words) ([3]; listed as BILA 2157): offsets the rate reducing effects

O=C([O-])c1cc(=O)c2c(OCC(O)COc3cccc4oc(C(=O)[O-])cc(=O)c34)cccc2o1.[Na+].[Na+] [Na-cromolyn, Na-Cromolyn]
tortuosity / abnormal vessel morphology of retinal microvasculature [4]: abnormal changes in the vessel morphology were not observed | leakage/pooling of fluorescein dye out of retinal vessels ([5]; Na cromolyn 2% topical, day 28, FIG. 15): prevented dye pooling | leakage/pooling of fluorescein dye out of retinal vessels ([5]; Na cromolyn 4% topical, weekly angiograms): prevented dye pooling | retinal vascular leakiness (fluorescein) over time [5]: greatly diminished | retinal vascular leakiness (fluorescein) over time ([5]; listed as cromolyn): reduces the leakage of fluorescein from retinal vessels | Evan's Blue dye leakage across the blood-retinal barrier [6]: prevented dye leakage into the retinal space; also recorded: protects against the early phase of increased vascular permeability | Evan's Blue dye leakage across the blood-retinal barrier ([6]; listed as cromolyn Na): protective effect against increased vascular permeability | effect on VEGF levels in retina (in words) [7]: reduces vascular endothelial growth factor (VEGF) levels | effect on VEGF levels in retina (in words) ([7]; listed as Cromolyn Na): decreases vascular endothelial growth factor (VEGF) levels | VEGF level in retina ([7]; STZ-injected hyperglycemic rats, Na-Cromolyn 4% topical 2 drops b.i.d., 1 month, n=2): about 65 pg VEGF/ml/mg retina

S=C(NC1CCCCC1)N1CCC(c2cnc[nH]2)CC1 [thioperamide]
migration with histamine alone compared to thioperamide alone or histamine in the presence of thioperamide [2]: significantly more migration
